Legend:
[1] = target: Neisseria polysaccharea amylosucrase 1G5A (parent SEQ ID NO: 13) variant A289P-F290I (Neisseria polysaccharea, UniProt Q9ZEU2, A297P/F298I/G545D); test: Kinetic parameters towards sucrose donor, double mutant A289P-F290I; type: biochemical; conditions: sucrose donor (0-500 mM); Eadie-Hofstee plot; 30° C., pH 7.0
Procedure: (§1) The double mutants A289P-F290C, A289P-F290I and A289P-F290L were produced and purified, as previously described in Example 1-1. The protein content was determined by the Nanodrop ND-1000 spectrophotometer. These mutants were tested on sucrose alone or supplemented with α-D-GlcpNAc-OAll acceptor, and compared to wtAS and F290K. Assays were performed at 30° C. in 50 mM Tris-HCl buffer, pH=7.0.
(§2) Enzyme assays were carried out in a total volume of 2 mL containing pure enzyme (0.073 mg, 0.153 mg and 0.092 mg when using A289P-F290C, A289P-F2901 and A289P-F290L, respectively).
(§3) Kinetic studies of AS variants were performed in the presence of sucrose (0-500 mM). At regular time intervals (2-5 min), aliquots (200 μL) were removed, heated (95° C., 2 min) and centrifuged (18000 g, 5 min) All the samples were filtered on a 0.22 μm membrane and analyzed using HPLC material previously described. The initial rate of sucrose consumed, corresponding to the initial rate of fructose released, was expressed in mole of fructose released per minute and per gram of enzyme. The kinetic parameters kcat and Km were calculated using Eadie-Hofstee plot.

[2] = target: Neisseria polysaccharea amylosucrase 1G5A (parent SEQ ID NO: 13) variant F290K (Neisseria polysaccharea, UniProt Q9ZEU2, F298K/G545D); test: Kinetic parameters towards sucrose donor, variant F290K; type: biochemical; conditions: F290K could not be saturated with sucrose
Procedure: Production and purification of AS variants were performed as previously described (ref. 45). […] The enzymes were desalted by size exclusion chromatography using P6DG columns (GE Healthcare Biosciences) at +4° C. and stored in elution buffer (50 mM Tris-HCl, pH 7.0, 150 mM NaCl) at −80° C. The protein content was determined by micro-Bradford method, using bovine serum albumin as standard (ref. 56).
All assays were performed at 30° C. in 50 mM Tris buffer, pH=7.0. For the acceptor reactions, F290D, F290K and ASNPwt (1G5A) were tested on α-D-GlcpNAc-OAll.
Enzyme assays were carried out in a total volume of 2 mL containing pure enzyme (0.115 mg and 0.106 mg when using ASNPwt and F290K, respectively). Catalytic efficiency (Eff=kcat/KM) of ASNPwt and F290K variant was determined with both sucrose (D=Donor) and α-D-GlcpNAc-OAll (A=Acceptor) as variable substrates. […] For each experiment, the reaction velocity corresponding to the acceptor glucosylation was determined by the formation of α-D-Glcp-(1→4)-α-D-GlcpNAc-OAll (called Vi(Dp2)), corresponding to the kinetics of the reaction of interest.
Initial velocities were fitted to the Michaelis-Menten equation using Sigma-Plot. As saturation was not achieved with the mutant, efficiency was calculated by linear regression analysis of the velocity versus substrate concentration plot. […]

[3] = target: Neisseria polysaccharea amylosucrase 1G5A (parent SEQ ID NO: 13) variant A289P-F290L (Neisseria polysaccharea, UniProt Q9ZEU2, A297P/F298L/G545D); test: Kinetic parameters towards sucrose donor, double mutant A289P-F290L; type: biochemical; conditions: sucrose donor (0-500 mM); Eadie-Hofstee plot; 30° C., pH 7.0
Procedure: as §1, §2, §3

[4] = target: Neisseria polysaccharea amylosucrase 1G5A (parent SEQ ID NO: 13) variant A289P-F290C (Neisseria polysaccharea, UniProt Q9ZEU2, A297P/F298C/G545D); test: Kinetic parameters towards sucrose donor, double mutant A289P-F290C; type: biochemical; conditions: sucrose donor (0-500 mM); Eadie-Hofstee plot; 30° C., pH 7.0
Procedure: as §1, §2, §3

[5] = tested on: Neisseria polysaccharea amylosucrase 1G5A, wild type (wtAS, ASNPwt), SEQ ID NO: 13; conditions: sucrose donor, data from ref. 83; cited from earlier work

## OC[C@H]1O[C@@](CO)(O[C@H]2O[C@H](CO)[C@@H](O)[C@H](O)[C@H]2O)[C@@H](O)[C@@H]1O [sucrose]
[1]
  kcat: 1.1 s⁻¹
[2]
  affinity for sucrose: poor affinity for sucrose
[3]
  kcat: 2.1 s⁻¹
[4]
  kcat: 2.8 s⁻¹
[5]
  Km: 50.2 mM
  kcat: 1.3 s⁻¹
